This is an account of results in publication PMC9077138, “An investigation on 3-acetyl-7-methoxy-coumarin Schiff bases and their Ru(II) metallates with potent antiproliferative activity and enhanced LDH and NO release” (RSC Advances, 2018).

Test [1] deals with human breast cancer cell line MCF-7. Description: MTT cytotoxicity assay. In kind it is cell-based. The settings on record: Homo sapiens, MCF7, 48 h, read-out: IC50 values MCF-7. The text has this:
(§1) The DNA/protein binding studies, antioxidant and antimicrobial studies had shown that the ligands and ruthenium(II) complexes studied here have therapeutic potentials and were subjected to study their anticancer activity. A number of coumarin derivatives have shown considerable anticancer activity against a number of cell lines. All the 3-acetyl-7-methoxy-coumarin-4(N)-substituted thiosemicarbazone ligands, metal precursor [RuHClCO(PPh3)3] and their new cyclometallated Ru(II) complexes were assessed for their cytotoxicity with two human derived cell lines namely human lung carcinoma (A549) and human breast cancer cells (MCF-7) by using MTT assay. For comparison purpose, cisplatin was used as a positive control under identical conditions.
(§2) Cytotoxic activity of the compounds was tested with human lung cancer cell lines A549, human breast cancer cell lines MCF-7 and human normal keratinocyte cells (HaCaT) by using MTT assay, which was done according to the earlier literature methods[77] and IC50 values obtained from nonlinear regression using GraphPad Prism 5.[78] The LDH release[79] and NO release[80] assays of the compounds was evaluated by the earlier reported methods.
Background: Tetrazolium assays rely on reduction of a dye to a coloured formazan, in cell work by metabolically active cells.

For test [2], the system named is human lung carcinoma cancer cell line A549. The test can be described thus: MTT cytotoxicity assay. The settings on record: Homo sapiens, A549, 48 h, read-out: IC50 values A549. The class given is cell-based.
Source text: as §1, §2

The test system of a further test is P. aeruginosa. The test can be described thus: In vitro antibacterial assay (zone of inhibition, MIC). In kind it is cell-based, Pseudomonas aeruginosa. The settings on record: Pseudomonas aeruginosa. Here is the method: (§3) The free ligands and their cyclometallated ruthenium(II) carbonyl complexes were screened for their in vitro antimicrobial activity against certain pathogenic bacterial and fungal species at three different concentrations using disc diffusion method.
(§4) Antimicrobial activities of [RuHClCO(PPh3)3], ligands H2L^1–4 and new organometallic Ru(II) complexes (1–4) were evaluated by agar well diffusion method[76] as reported, by taking Staphylococcus aureus, Streptococcus pneumonie, Pseudomonas aeruginosa, Salmonella paratyphi and fungus such as Candida albicans, Trichophyton rubrum, Aspergillus niger, Aspergillus fumigatus and Candida tropicalis. The above said all test organisms were obtained from the MTCC, Chandigarh, India and Microbiological laboratory, Coimbatore, Tamil Nadu, India. The antimicrobial activity of the test compounds was checked with various concentrations (25 μg ml^−1, 50 μg ml^−1 and 100 μg ml^−1) against all the test pathogens. Gentamicin and ketoconazole were used as positive controls to study the antibacterial and antifungal activities respectively. Each experiment was performed in triplicate and the results are represented as average zone of inhibition and minimum inhibitory concentration of all the test pathogens.

A further test relates to S. paratyphi. The test is described as above. The class given is cell-based, Salmonella paratyphi. The settings on record: Salmonella enterica.
Source text: The free ligands and their cyclometallated ruthenium(II) carbonyl complexes were screened for their in vitro antimicrobial activity against certain pathogenic bacterial and fungal species at three different concentrations using disc diffusion method. […] Tested complexes had better antimicrobial activity than the ligands against all pathogens. This may be explained by Tweedy's chelation theory.[61] Coordination of ligands reduce the polarity of the metal ion essentially by partial sharing of its positive charge with the donor groups within the chelate ring system formed during the coordination and leading to the increase in lipophilic nature of the central metal atom, which favours the effective permeation through the lipid layer of microorganism.[61,62] […] When tested against T. rubrum, the activity of the complexes in the order of 3 > 2 > 1 > 4. In antibacterial studies, the complex 3 was effective against S. aureus followed by complex 2, 1 and 4 and in the case of S. pneumonie the activity of the complexes follows the order of 3 > 1 > 4 > 2. […] When tested against S. paratyphi complex 1 stood out as good followed by the complexes 4, 3 and 2 respectively.
as §4

The next test deals with S. aureus. Described as above. The class given is cell-based, Staphylococcus aureus. The settings on record: Staphylococcus aureus. As to the method:
as §3, §4

For another test, the system named is S. pneumonie. Described as above. The settings on record: Streptococcus. In kind it is cell-based, Streptococcus pneumonie. Here is the method:
as §3, §4

The test system of a further test is C. albicans. Description: In vitro antifungal assay (zone of inhibition, MIC). The settings on record: Candida albicans. The class given is cell-based, Candida albicans. As to the method:
as §3, §4

In test [3] the test system is human normal keratinocyte cells (HaCaT). Description: MTT cytotoxicity assay. The class given is cell-based. The settings on record: Homo sapiens, HaCaT, 48 h, read-out: IC50 values HaCaT. Here is the method: In order to investigate the selectivity of the compounds for cancer cells rather than normal cell lines, the compounds were also screened for their anticancer activity on the human normal keratinocyte cells (HaCaT).
as §2

A word on the IC50: it is the concentration needed to halve the response being measured. What is called zone of inhibition is the extent of the growth-free halo in a diffusion test. A lower zone of inhibition goes with little suppression of growth. On to `COc1ccc2cc(/C(C)=N\NC(=S)Nc3ccccc3)c(=O)oc2c1` [H2L^4, ((1E)-1-(1-(7-methoxy-2-oxo-2H-chromen-3-yl)ethylidene) 4(N)-phenylthiosemicarbazone)], for which the IC50 was 13.1 ± 0.25 µM in test [1], 13.8 ± 0.18 µM in test [2] and > 40 µM in test [3]. The zone of inhibition at 50 µg/mL was found to be 12.1 ± 0.32 mm in the test with P. aeruginosa; 12.2 ± 0.51 mm with S. paratyphi (50 µg/ml); 15.4 ± 0.52 mm with S. aureus; 12.2 ± 0.43 mm in the test with S. pneumonie; 12.3 ± 0.21 mm in the test with C. albicans. In addition, the zone of inhibition at 100 µg/mL in the test on P. aeruginosa came to 17.5 ± 0.65 mm; with S. paratyphi (100 µg/ml) it was 16.4 ± 0.51 mm; with S. aureus, 18.5 ± 0.73 mm; in the test with S. pneumonie, 18.1 ± 0.22 mm; in the test with C. albicans, 17.19 ± 0.15 mm.
